Legend:
[1] = Cmax in Sprague-Dawley rat at 2 mg/kg, iv administered as single dose; assay type: ADME, organism-based; design: route intravenous, dose 2 mg/kg; conditions: in vivo
NCI-H1975 [2] = experiment: Antimigratory activity against human NCI-H1975 cells harboring EGFR T790M/L858R mutant assessed as inhibition of cell migration at 9 nM measured after 24 hrs by phase contrast microscopic analysis relative to control; assay type: functional
[3] = Cytotoxicity against HLF cells assessed as reduction in cell viability by MTT assay; assay type: cell-based; conditions: Homo sapiens
[4] = Selectivity ratio of IC50 for HLF cells to IC50 for antiproliferative activity against human NCI-H1975 cells
[5] = Tmax in Sprague-Dawley rat at 10 mg/kg, po administered as single dose; assay type: ADME, organism-based; conditions: in vivo
NCI-H1975 [6] = experiment: Induction of mitochondrial membrane potential loss in human NCI-H1975 cells harboring EGFR T790M/L858R mutant measured after 24 hrs by JC1 staining based fluorescence microscopic analysis; assay type: functional, cell-based; conditions: dose 1-10 nM
NCI-H1975 [7] = experiment: Induction of apoptosis in human NCI-H1975 cells harboring EGFR T790M/L858R mutant assessed as necrotic cells at 5 nM measured after 72 hrs by Annexin-V-FITC/propidium iodide staining based flow cytometry (reference value: 0.49%); assay type: functional
[8] = MRT in Sprague-Dawley rat at 10 mg/kg, po administered as single dose; assay type: ADME, organism-based; conditions: in vivo
NCI-H1975 [9] = experiment: Induction of apoptosis in human NCI-H1975 cells harboring EGFR T790M/L858R mutant assessed as late apoptotic cells at 1 nM measured after 48 hrs by Annexin-V-FITC/propidium iodide staining based flow cytometry (reference value: 0.04%); assay type: functional
NCI-H1975 [10] = experiment: Induction of apoptosis in human NCI-H1975 cells harboring EGFR T790M/L858R mutant assessed as late apoptotic cells at 5 nM measured after 48 hrs by Annexin-V-FITC/propidium iodide staining based flow cytometry (reference value: 0.04%); assay type: functional
NCI-H1975 [11] = experiment: Induction of apoptosis in human NCI-H1975 cells harboring EGFR T790M/L858R mutant assessed as necrotic cells at 1 nM measured after 72 hrs by Annexin-V-FITC/propidium iodide staining based flow cytometry (reference value: 0.49%); assay type: functional
[12] = target: Epidermal growth factor receptor (Homo sapiens, UniProt P00533); experiment: Inhibition of recombinant human GST-tagged EGFR expressed in baculovirus expression system using tyr-04 peptide as substrate incubated for 60 mins in presence of ATP by Z'-LYTE assay
Chain of Epidermal growth factor receptor (P00533 whole entry): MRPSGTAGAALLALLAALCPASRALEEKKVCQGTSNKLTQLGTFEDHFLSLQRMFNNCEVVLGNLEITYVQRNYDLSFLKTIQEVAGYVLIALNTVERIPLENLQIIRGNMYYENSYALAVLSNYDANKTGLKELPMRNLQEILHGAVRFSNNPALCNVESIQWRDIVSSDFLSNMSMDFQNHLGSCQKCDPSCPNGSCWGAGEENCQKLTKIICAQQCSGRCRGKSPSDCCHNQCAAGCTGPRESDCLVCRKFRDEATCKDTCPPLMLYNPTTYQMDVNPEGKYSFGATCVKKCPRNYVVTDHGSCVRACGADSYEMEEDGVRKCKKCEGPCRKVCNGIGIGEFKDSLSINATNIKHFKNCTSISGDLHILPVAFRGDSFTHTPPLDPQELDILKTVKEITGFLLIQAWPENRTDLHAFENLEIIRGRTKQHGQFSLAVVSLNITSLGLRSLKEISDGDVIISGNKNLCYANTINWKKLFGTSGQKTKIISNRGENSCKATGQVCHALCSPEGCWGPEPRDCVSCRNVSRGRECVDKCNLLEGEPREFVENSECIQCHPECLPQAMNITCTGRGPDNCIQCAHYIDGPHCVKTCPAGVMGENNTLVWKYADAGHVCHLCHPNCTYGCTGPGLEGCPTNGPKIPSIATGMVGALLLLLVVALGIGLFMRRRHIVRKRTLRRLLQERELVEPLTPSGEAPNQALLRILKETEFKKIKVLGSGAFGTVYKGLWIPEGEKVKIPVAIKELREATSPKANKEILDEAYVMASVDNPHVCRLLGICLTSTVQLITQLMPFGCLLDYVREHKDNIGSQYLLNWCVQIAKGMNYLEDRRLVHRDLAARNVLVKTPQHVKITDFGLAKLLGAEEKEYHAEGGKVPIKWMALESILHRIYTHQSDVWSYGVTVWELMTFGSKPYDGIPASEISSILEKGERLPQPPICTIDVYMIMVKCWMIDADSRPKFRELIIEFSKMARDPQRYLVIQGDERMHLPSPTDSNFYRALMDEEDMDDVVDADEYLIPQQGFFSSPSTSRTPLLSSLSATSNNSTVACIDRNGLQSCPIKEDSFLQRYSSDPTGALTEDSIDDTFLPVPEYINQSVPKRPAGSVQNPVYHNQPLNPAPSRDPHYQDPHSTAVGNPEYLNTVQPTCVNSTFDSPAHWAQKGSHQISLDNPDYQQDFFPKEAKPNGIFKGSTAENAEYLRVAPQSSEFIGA

NCI-H1975 [13] = experiment: Induction of apoptosis in human NCI-H1975 cells harboring EGFR T790M/L858R mutant assessed as early apoptotic cells at 10 nM measured after 72 hrs by Annexin-V-FITC/propidium iodide staining based flow cytometry (reference value: 0.72%); assay type: functional
[14] = Cytotoxicity against HEK293-A cells assessed as reduction in cell viability by MTT assay; assay type: cell-based; conditions: Homo sapiens
[15] = Cmax in Sprague-Dawley rat at 10 mg/kg, po administered as single dose; assay type: ADME, organism-based; design: route oral, dose 10 mg/kg; conditions: in vivo
NCI-H1975 [16] = experiment: Induction of mitochondrial membrane potential loss in human NCI-H1975 cells harboring EGFR T790M/L858R mutant assessed as cells with intact mitochondrial membrane potential at 5 nM measured after 24 hrs by JC1 staining based fluorescence microscopic analysis (reference value: 94.51%); assay type: functional
NCI-H1975 [17] = experiment: Induction of mitochondrial membrane potential loss in human NCI-H1975 cells harboring EGFR T790M/L858R mutant assessed as cells with intact mitochondrial membrane potential at 10 nM measured after 24 hrs by JC1 staining based fluorescence microscopic analysis (reference value: 94.51%); assay type: functional
L02 = experiment: Cytotoxicity against human L02 cells assessed as reduction in cell viability by MTT assay; assay type: cell-based
NCI-H1975 [18] = experiment: Antimigratory activity against human NCI-H1975 cells harboring EGFR T790M/L858R mutant assessed as inhibition of cell migration at 9 nM measured after 48 hrs by phase contrast microscopic analysis relative to control; assay type: functional
NCI-H1975 [19] = experiment: Induction of apoptosis in human NCI-H1975 cells harboring EGFR T790M/L858R mutant assessed as viable cells at 1 nM measured after 72 hrs by Annexin-V-FITC/propidium iodide staining based flow cytometry (reference value: 98.66%); assay type: functional; conditions: read-out: Activity
NCI-H1975 [20] = experiment: Induction of apoptosis in human NCI-H1975 cells harboring EGFR T790M/L858R mutant assessed as viable cells at 1 nM measured after 48 hrs by Annexin-V-FITC/propidium iodide staining based flow cytometry (reference value: 98.63%); assay type: functional; conditions: read-out: Activity
NCI-H1975 [21] = experiment: Induction of apoptosis in human NCI-H1975 cells harboring EGFR T790M/L858R mutant assessed as viable cells at 10 nM measured after 72 hrs by Annexin-V-FITC/propidium iodide staining based flow cytometry (reference value: 98.66%); assay type: functional; conditions: read-out: Activity
NCI-H1975 [22] = experiment: Induction of mitochondrial membrane potential loss in human NCI-H1975 cells harboring EGFR T790M/L858R mutant assessed as cell population with mitochondrial membrane potential collapse at 5 nM measured after 24 hrs by JC1 staining based fluorescence microscopic analysis (reference value: 5.49%); assay type: functional
NCI-H1975 [23] = experiment: Induction of apoptosis in human NCI-H1975 cells harboring EGFR T790M/L858R mutant assessed as late apoptotic cells at 10 nM measured after 72 hrs by Annexin-V-FITC/propidium iodide staining based flow cytometry (reference value: 0.13%); assay type: functional
[24] = Clearance in Sprague-Dawley rat at 2 mg/kg, iv administered as single dose; assay type: ADME, organism-based; conditions: in vivo
[25] = Selectivity ratio of IC50 for HEK293-A cells to IC50 for antiproliferative activity against human NCI-H1975 cells; assay type: toxicity, cell-based; conditions: HEK293-A cells versus NCI-H1975 cells, read-out: Ratio IC50
NCI-H1975 [26] = experiment: Induction of apoptosis in human NCI-H1975 cells harboring EGFR T790M/L858R mutant assessed as viable cells at 5 nM measured after 72 hrs by Annexin-V-FITC/propidium iodide staining based flow cytometry (reference value: 98.66%); assay type: functional; conditions: read-out: Activity
[27] = Toxicity in nude mouse xenografted with human NCI-H1975 cells harboring EGFR T790M/L858R mutant assessed as mortality at 15 mg/kg, po administered once daily for 7 days relative to control; assay type: organism-based; conditions: in vivo, time 7 day, read-out: Activity
[28] = Selectivity ratio of IC50 for antiproliferative activity against human NCI-H292 cells harboring wild-type EGFR to IC50 for antiproliferative activity against human NCI-H1975 cells harboring EGFR T790M/L858R mutant; assay type: functional
NCI-H1975 [29] = experiment: Induction of apoptosis in human NCI-H1975 cells harboring EGFR T790M/L858R mutant assessed as early apoptotic cells at 1 nM measured after 48 hrs by Annexin-V-FITC/propidium iodide staining based flow cytometry (reference value: 0.82%); assay type: functional
[30] = Selectivity ratio of IC50 for HK-2 cells to IC50 for antiproliferative activity against human NCI-H1975 cells
HK-2 = experiment: Cytotoxicity against HK-2 cells assessed as reduction in cell viability by MTT assay; assay type: cell-based; conditions: Homo sapiens
[31] = AUC (0 to infinity) in Sprague-Dawley rat at 10 mg/kg, po administered as single dose; assay type: ADME, organism-based; design: time infinity, route oral, dose 10 mg/kg; conditions: in vivo

`C=CC(=O)Nc1cc(Nc2nccc(-c3cn(C4CC4)c4ccccc34)n2)c(OC)cc1[S+]([O-])CCN(C)C` (stereo not drawn) showed a Cmax [1] of 503 ng/mL, an inhibition at 0.009 µM (NCI-H1975 [2]) of 47% and an IC50 [3] of 6.04 µM. For the same compound, the “Ratio IC50” value [4] was 755, the Tmax [5] was 1.67 h and the Activity (NCI-H1975 [6]) was “Dose-dependent effect”. For the same compound, the Activity (NCI-H1975 [7]) was 10.51%, the MRT [8] was 3.61 h and the Activity (NCI-H1975 [9]) was 1.64%. For the same compound, the Activity (NCI-H1975 [10]) was 3.64%, the Activity (NCI-H1975 [11]) was 9.52% and the IC50 [12] was 0.0041 µM. It also gave an Activity (NCI-H1975 [13]) of 44.72%, an IC50 [14] of 3.06 µM and a Cmax [15] of 203 ng/mL. For the same compound, the Activity (NCI-H1975 [16]) was 72.38%, the Activity (NCI-H1975 [17]) was 59.69% and the IC50 (L02) was 4.67 µM. It also gave an inhibition at 0.009 µM (NCI-H1975 [18]) of 74%, a viability at 0.001 µM (NCI-H1975 [19]) of 70.3% and a viability at 0.001 µM (NCI-H1975 [20]) of 82%. For the same compound, the viability at 0.01 µM (NCI-H1975 [21]) was 27.4%, the Activity (NCI-H1975 [22]) was 26.9% and the Activity (NCI-H1975 [23]) was 22.53%. The clearance [24] was 98.1 mL/min/kg, the selectivity ratio [25] was 383 and the viability at 0.005 µM (NCI-H1975 [26]) was 52.5%. For the same compound, the mortality at 168 h [27] was less than 5%, the “Ratio IC50” value [28] was 89.8 and the Activity (NCI-H1975 [29]) was 10.89%. For the same compound, the “Ratio IC50” value [30] was 733, the IC50 (HK-2) was 5.86 µM and the AUC(0-inf) [31] was 722 ng·h/mL.

Source: ChEMBL document CHEMBL4706659, “Design, synthesis and biological evaluation of novel 2,4-diaryl pyrimidine derivatives as selective EGFR inhibitors” (Eur J Med Chem, 2021)
